{"source": "patent US8580968B2", "about": "“Benzothiazole and benzooxazole derivatives and methods of use” (AbbVie Inc., priority 2007, dated 2013)", "key": {"[1]": {"test_system": "adult osteoarthritic rats", "experiment": "osteoarthritis model (MIA-induced knee joint osteoarthritis, hind limb grip force)", "assay_type": "in vivo, rat", "settings": "intraperitoneal injection; for effect on hind limb grip force: p<0.01, 20 days after MIA", "description": "Unilateral knee joint osteoarthritis was induced in rats by a single intra-articular (i.a.) injection of sodium monoiodoacetate (MIA) (Sigma-Aldrich, St. Louis, Mo.) (3 mg in 50 μl sterile isotonic saline) into the right knee joint cavity under light (1-3%) isoflurane anesthesia.\nPain behavior was assessed by measurement of hind limb grip force (GF) in adult osteoarthritic rats. Following the unilateral injection of MIA (male Sprague Dawley, 325-350 g, tested at 20 days following MIA injection), a behavioral measure of activity-induced pain was carried out. Measurements of the peak hind limb grip force were conducted by recording the maximum compressive force (CFmax), in grams of force, exerted on a hind limb strain gauge setup, in a commercially available grip force measurement system (Columbus Instruments, Columbus, Ohio).\nDuring testing, each rat was gently restrained by grasping it around its rib cage and then allowed to grasp the wire mesh frame attached to the strain gauge. The experimenter then moved the animal in a rostral-to-caudal direction until the grip was broken. Each rat was sequentially tested twice at approximately 2-3 min interval to obtain a raw mean grip force (CFmax). This raw mean grip force data was in turn converted to a maximum hindlimb cumulative compressive force (CFmax), as the grams of force/kg of body weight, for each animal.\nFor evaluating the compound effects, the hind limb grip force was conducted 20 days following the intra-articular injection of MIA. A group of age-matched naïve (not injected with MIA) animals was added as a comparator to the drug-dosed groups. The vehicle control response for each group of MIA-treated animals was defined as the 0% response (0% effect), whereas the naïve control group was defined as the normal response and as 100% effect. The % effects for each dose group was expressed as % return of response to normalcy, compared to the naïve group. That is, the % effect=(Treatment CFmax−Vehicle CFmax)/Vehicle CFmax]×100). All experiments evaluating drug effects in this model were conducted in a randomized blinded fashion. […]"}, "[2]": {"test_system": "mice", "experiment": "single trial 24-hour inhibitory avoidance model (memory)", "assay_type": "in vivo, mouse", "settings": "0.03 mg/kg, intraperitoneal injection, p<0.01 versus vehicle injected control mice", "description": "The ability of compounds to treat diseases with deficits in memory and cognition such as Alzheimer's disease, dementia, age-related cognitive impairment, schizophrenia, and cognitive deficits of schizophrenia can be assessed in animal models. One model assessing the capability of a compound to enhance memory is the single trial 24-hour inhibitory avoidance model, described in Tietje et al. (Tietje, K. R., et al. “Preclinical Characterization of A-582941: A Novel α7 Neuronal Nicotinic Receptor Agonist with Broad Spectrum Cognition-Enhancing Properties” CNS Neuroscience and Therapeutics 2008 v14 pp. 65-82). In this mouse model, at a dose of 0.03 mg/kg, administered by intraperitoneal injection, the compound of Example 20 ((R)-2-(2-(3-(piperidin-1-yl)pyrrolidin-1-yl)benzo[d]thiazol-6-yl)pyridazin-3(2H)-one) achieved full efficacy, (p<0.01 versus vehicle injected control mice)."}, "[3]": {"test_system": "Male Sprague Dawley rats", "experiment": "analgesic effect against neuropathic pain (L5/L6 spinal nerve ligation, von Frey mechanical allodynia)", "assay_type": "in vivo, rat", "settings": "intraperitoneal injection", "description": "Animals were prepared for testing, by use of a surgical procedure that induces neuropathic pain in one paw. Male Sprague Dawley rats were purchased from Charles River (Portage, Mich.). Prior to surgery, animals were housed in groups and maintained in a temperature-regulated environment. Following nerve ligation surgery, animals were housed in groups, and had access to food and water ad libitum.\nThe L5 and L6 spinal nerves of anesthetized rats were tightly ligated in a manner described previously (see Kim and Chung, Pain (1992) vol. 50 pp. 355-363). An incision was made on the dorsal portion of the hip and the muscle was blunt-dissected to reveal the spinal processes. […] The paw affected by the surgical procedure (the left paw) develops an allodynic response, a hypersensitivity to mechanical and other stimuli; neuropathic pain is assessed as an increased sensitivity in the surgically affected (left) allodynic paw compared to the control paw on the right side, and measured by comparing the response of the (left side) allodynic paw to the response of the unaffected right side control paw.\nFor the assessment of neuropathic pain, mechanical allodynia in the affected paw of animals that had undergone spinal nerve ligation was evaluated using testing with von Frey filaments. […]"}}, "data": [{"smiles": "O=c1cccnn1-c1ccc2nc(N3CC[C@@H](N4CCCCC4)C3)sc2c1", "note": "[Example 20, (R)-2-(2-(3-(piperidin-1-yl)pyrrolidin-1-yl)benzo[d]thiazol-6-yl)pyridazin-3(2H)-one]", "values": [{"measurement": "effect on hind limb grip force", "setting": "[1]; 1 mg/kg", "value": 49, "unit": "%"}, {"measurement": "effect on hind limb grip force", "setting": "[1]; 3 mg/kg", "value": 69, "unit": "%"}, {"measurement": "adverse effects", "setting": "[1]; osteoarthritis model", "value": "No complicating adverse effects were observed"}, {"measurement": "efficacy in inhibitory avoidance (memory enhancement)", "setting": "[2]", "value": "full efficacy"}, {"measurement": "reduction in mechanical allodynia", "setting": "[3]; 3 mg/kg, p<0.01", "value": 40, "unit": "%"}, {"measurement": "adverse effects", "setting": "[3]; neuropathic pain model", "value": "No complicating adverse effects were observed"}]}]}
